Measurements as given in PubChem BioAssay (NCI).
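Here, GI50 denotes the concentration required for 50% inhibition of growth. TGI: concentration producing complete growth inhibition.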

How the values were obtained:
Test in all cases: NCI-60 cell line screen, 384-well format
[1] = system: SN12C renal
[2] = system: OVCAR-4 ovarian
[3] = system: NCI-H226 lung
[4] = system: ACHN renal
[5] = system: SF-268 CNS
[6] = system: IGROV1 ovarian
[7] = system: NCI/ADR-RES ovarian
[8] = system: TK-10 renal
[9] = system: UO-31 renal
[10] = system: NCI-H460 NSCLC
[11] = system: UACC-257 melanoma
[12] = system: SNB-19 CNS
[13] = system: HCT-15 colon
[14] = system: NCI-H322M lung
[15] = system: RXF 393 renal
[16] = system: SK-MEL-2 melanoma
[17] = system: OVCAR-8 ovarian
[18] = system: M14 melanoma
[19] = system: MDA-MB-231 breast
[20] = system: KM12 colon
[21] = system: HCC-2998 colon
[22] = system: SK-MEL-5 melanoma
[23] = system: SW-620 colon
[24] = system: DU-145 prostate
[25] = system: CAKI-1 renal
[26] = system: COLO 205 colon
[27] = system: MOLT-4 leukemia
[28] = system: A549 NSCLC
[29] = system: MDA-MB-468 breast
[30] = system: HT29 colon
[31] = system: HL-60(TB) leukemia
[32] = system: OVCAR-3 ovarian
[33] = system: MCF7 breast
[34] = system: OVCAR-5 ovarian
[35] = system: LOX IMVI melanoma
[36] = system: A498 renal
[37] = system: SF-295 CNS
[38] = system: NCI-H23 lung
[39] = system: CCRF-CEM leukemia
[40] = system: UACC-62 melanoma
[41] = system: MDA-MB-435 melanoma
[42] = system: SK-MEL-28 melanoma
[43] = system: BT-549 breast
[44] = system: NCI-H522 lung
[45] = system: RPMI-8226 leukemia
[46] = system: SK-OV-3 ovarian
[47] = system: SF-539 CNS
[48] = system: U251 glioblastoma
[49] = system: HOP-92 NSCLC
[50] = system: SR leukemia
[51] = system: PC-3 prostate
[52] = system: K-562 leukemia
[53] = system: HCT-116 colon
[54] = system: 786-0 renal
[55] = system: MALME-3M melanoma
[56] = system: HOP-62 NSCLC

Which GI50 [1] does the source give for Cc1c(-c2c(F)cc(C(N)=O)c3[nH]c4c(c23)CC[C@H](C(C)(C)O)C4)cccc1-n1c(=O)c2cccc(F)c2n(C)c1=O here?
The GI50 was 3.26 µM.

What about the TGI [1] of the same compound?
The TGI was 13.1 µM.

What about the GI50 [2] of the same compound?
Its GI50 is 2.8 µM.

And the TGI [2]?
The TGI was 7.38 µM.

What about the GI50 [3] of the same compound?
The GI50 was 2.56 µM.

What about the TGI [3] of the same compound?
The TGI was 10.4 µM.

And the GI50 [4]?
The GI50 was 1.97 µM.

And the TGI [4]?
The TGI was 5.73 µM.

What about the GI50 [5] of the same compound?
The GI50 was 5.58 µM.

What about the TGI [5] of the same compound?
The TGI was 21.4 µM.

What about the GI50 [6] of the same compound?
Its GI50 is 3.17 µM.

What about the TGI [6] of the same compound?
The TGI was 9.53 µM.

What about the GI50 [7] of the same compound?
The GI50 was 3.55 µM.

And the TGI [7]?
The TGI was 13 µM.

What about the GI50 [8] of the same compound?
The GI50 was 2.16 µM.

And the TGI [8]?
The TGI was 4.76 µM.

And the GI50 [9]?
The GI50 was 2 µM.

What about the TGI [9] of the same compound?
The TGI was 5.39 µM.

And the GI50 [10]?
Its GI50 is 2.9 µM.

What about the TGI [10] of the same compound?
Its TGI is 13.1 µM.

What about the GI50 [11] of the same compound?
Its GI50 is 2.29 µM.

What about the TGI [11] of the same compound?
Its TGI is 10.7 µM.

What about the GI50 [12] of the same compound?
Its GI50 is 9.94 µM.

And the TGI [12]?
The TGI was 24.5 µM.

What about the GI50 [13] of the same compound?
Its GI50 is 3.7 µM.

And the TGI [13]?
Its TGI is 13.6 µM.

What about the GI50 [14] of the same compound?
The GI50 was 4.08 µM.

What about the TGI [14] of the same compound?
The TGI was 23.6 µM.

And the GI50 [15]?
The GI50 was 1.96 µM.

What about the TGI [15] of the same compound?
The TGI was 4.07 µM.

And the GI50 [16]?
Its GI50 is 2.18 µM.

And the TGI [16]?
Its TGI is 7.9 µM.

What about the GI50 [17] of the same compound?
The GI50 was 4.62 µM.

What about the TGI [17] of the same compound?
Its TGI is 22.9 µM.

And the GI50 [18]?
Its GI50 is 2.2 µM.

What about the TGI [18] of the same compound?
Its TGI is 10.1 µM.

What about the GI50 [19] of the same compound?
The GI50 was 3.59 µM.

What about the TGI [19] of the same compound?
The TGI was 14.5 µM.

And the GI50 [20]?
The GI50 was 0.284 µM.

And the TGI [20]?
Its TGI is 1.54 µM.

What about the GI50 [21] of the same compound?
The GI50 was 2.33 µM.

And the TGI [21]?
The TGI was 6.99 µM.

What about the GI50 [22] of the same compound?
Its GI50 is 4.31 µM.

What about the TGI [22] of the same compound?
The TGI was 14.1 µM.

And the GI50 [23]?
Its GI50 is 2.94 µM.

And the TGI [23]?
Its TGI is 13.5 µM.

And the GI50 [24]?
Its GI50 is 4.85 µM.

And the TGI [24]?
The TGI was 23 µM.

And the GI50 [25]?
Its GI50 is 2.21 µM.

What about the TGI [25] of the same compound?
Its TGI is 5.72 µM.

And the GI50 [26]?
The GI50 was 1.61 µM.

What about the TGI [26] of the same compound?
The TGI was 4.46 µM.

And the GI50 [27]?
Its GI50 is 1.53 µM.

What about the TGI [27] of the same compound?
Its TGI is 2.93 µM.

And the GI50 [28]?
The GI50 was 2.43 µM.

What about the TGI [28] of the same compound?
Its TGI is 9.34 µM.

What about the GI50 [29] of the same compound?
Its GI50 is 2.86 µM.

What about the TGI [29] of the same compound?
Its TGI is 5.86 µM.

What about the GI50 [30] of the same compound?
The GI50 was 1.47 µM.

What about the TGI [30] of the same compound?
Its TGI is 11.8 µM.

What about the GI50 [31] of the same compound?
The GI50 was 1.12 µM.

And the TGI [31]?
Its TGI is 2.34 µM.

And the GI50 [32]?
The GI50 was 2.54 µM.

What about the TGI [32] of the same compound?
Its TGI is 6.39 µM.

What about the GI50 [33] of the same compound?
The GI50 was 1.29 µM.

What about the TGI [33] of the same compound?
The TGI was 3.56 µM.

And the GI50 [34]?
The GI50 was 2.56 µM.

What about the TGI [34] of the same compound?
The TGI was 11.3 µM.

And the GI50 [35]?
The GI50 was 5.98 µM.

What about the TGI [35] of the same compound?
Its TGI is 16.2 µM.

And the GI50 [36]?
Its GI50 is 3.25 µM.

What about the TGI [36] of the same compound?
Its TGI is 9.41 µM.

And the GI50 [37]?
The GI50 was 3.42 µM.

And the TGI [37]?
Its TGI is 12 µM.

What about the GI50 [38] of the same compound?
The GI50 was 2.67 µM.

What about the TGI [38] of the same compound?
The TGI was 10.9 µM.

What about the GI50 [39] of the same compound?
The GI50 was 3.33 µM.

And the TGI [39]?
Its TGI is 9.78 µM.

What about the GI50 [40] of the same compound?
Its GI50 is 3.6 µM.

And the TGI [40]?
The TGI was 15.7 µM.

And the GI50 [41]?
The GI50 was 4.13 µM.

What about the TGI [41] of the same compound?
The TGI was 15.1 µM.

What about the GI50 [42] of the same compound?
Its GI50 is 2.87 µM.

And the TGI [42]?
The TGI was 13.8 µM.

What about the GI50 [43] of the same compound?
The GI50 was 5.1 µM.

What about the TGI [43] of the same compound?
Its TGI is 15.7 µM.

What about the GI50 [44] of the same compound?
Its GI50 is 1.89 µM.

What about the TGI [44] of the same compound?
The TGI was 6.56 µM.

And the GI50 [45]?
The GI50 was 1.32 µM.

And the TGI [45]?
Its TGI is 2.7 µM.

What about the GI50 [46] of the same compound?
Its GI50 is 2.26 µM.

What about the TGI [46] of the same compound?
Its TGI is 8.77 µM.

What about the GI50 [47] of the same compound?
The GI50 was 8 µM.

What about the TGI [47] of the same compound?
Its TGI is 20.9 µM.

And the GI50 [48]?
The GI50 was 5.78 µM.

What about the TGI [48] of the same compound?
Its TGI is 19.8 µM.

And the GI50 [49]?
The GI50 was 1.45 µM.

And the TGI [49]?
Its TGI is 4.8 µM.

What about the GI50 [50] of the same compound?
Its GI50 is 1.66 µM.

And the TGI [50]?
The TGI was 3.04 µM.

And the GI50 [51]?
Its GI50 is 3.85 µM.

And the TGI [51]?
Its TGI is 17 µM.

And the GI50 [52]?
Its GI50 is 4.66 µM.

And the TGI [52]?
The TGI was over 100 µM.

What about the GI50 [53] of the same compound?
Its GI50 is 3.14 µM.

What about the TGI [53] of the same compound?
The TGI was 12.1 µM.

And the GI50 [54]?
Its GI50 is 3.27 µM.

What about the TGI [54] of the same compound?
Its TGI is 14.5 µM.

What about the GI50 [55] of the same compound?
Its GI50 is 1.79 µM.

And the TGI [55]?
The TGI was 6.95 µM.

And the GI50 [56]?
The GI50 was 8.36 µM.

And the TGI [56]?
The TGI was 26.5 µM.
